From PubChem BioAssay (NCI)
Values joined by “and” are separate entries in the source; they are usually repeats but may differ in a detail not shown here. Equal values may be shown once.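 Protocol summary: plate cells (96-well), add compound at 5 concentrations, incubate 48 h, interpolate endpoints linearly. GI50 = concentration required for 50% inhibition of growth. TGI is the concentration that stops growth completely.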

Key:
Experiment in all cases: DTP human tumour cell line panel, 48 h
NCI-H522 lung = test system: NCI-H522 lung
MALME-3M melanoma = test system: MALME-3M melanoma
SK-MEL-5 melanoma = test system: SK-MEL-5 melanoma
HL-60(TB) leukemia = test system: HL-60(TB) leukemia
SF-295 CNS = test system: SF-295 CNS
OVCAR-5 ovarian = test system: OVCAR-5 ovarian
HCT-15 colon = test system: HCT-15 colon
KM12 colon = test system: KM12 colon
NCI-H23 lung = test system: NCI-H23 lung
EKVX NSCLC = test system: EKVX NSCLC

Structure (SMILES)	GI50 (NCI-H522 lung)	TGI (NCI-H522 lung) [µM]	GI50 (MALME-3M melanoma)	TGI (MALME-3M melanoma)	GI50 (SK-MEL-5 melanoma)	TGI (SK-MEL-5 melanoma)	GI50 (HL-60(TB) leukemia)	TGI (HL-60(TB) leukemia)	GI50 (SF-295 CNS)	TGI (SF-295 CNS)	GI50 (OVCAR-5 ovarian)	TGI (OVCAR-5 ovarian) [µM]	GI50 (HCT-15 colon)	TGI (HCT-15 colon) [µM]	GI50 (KM12 colon)	TGI (KM12 colon) [µM]	GI50 (NCI-H23 lung)	TGI (NCI-H23 lung) [µM]	GI50 (EKVX NSCLC)	TGI (EKVX NSCLC)
Cc1ccc(NC2=C(Cl)C(=O)N(Cc3ccccc3)C2=O)cc1O	41.2 µM	> 100	24.1 µM	> 100 µM	15.5 µM	37.5 µM	6.45 µM	> 100 µM	22 µM	81.8 µM	> 100 µM	> 100	33.5 µM	> 100	41.4 µM	> 100	34.3 µM	> 100	17.8 µM	52.6 µM
Cc1coc2c1CC1(C)C(CCC(O)C1C)C2 (centres undefined)		> 100		> 100 µM		> 100 µM		> 100 µM		> 100 µM		> 100		> 100		> 100		> 100		> 100 µM
CC(C)=CC(=O)C1c2cccc(O)c2C(=O)c2c(O)cc(C)cc21 (centres undefined)		3.85		7.93 µM		4.06 µM		9.15 µM		3.39 µM		5.13		10.6		3.17		6.55		31.5 µM
COC1CCC(N2C(=O)CNc3ncc(-c4ccc(C(C)(C)O)nc4)nc32)CC1 (centres undefined)	0.322 µM and 0.0656 µM	2.63	0.228 µM and 0.0287 µM	2.8 µM and 0.352 µM	0.766 µM and 0.149 µM	2.79 µM and 1.46 µM	2.88 µM and 1.09 µM	> 10 µM and 30.8 µM	0.511 µM and 0.157 µM	4.75 µM and 3.09 µM	0.918 µM and 0.273 µM	> 44.8	0.732 µM and 0.293 µM	> 36.1	1.2 µM and 0.302 µM	> 40.8	1.16 µM and 0.35 µM	> 45.1	1.21 µM and 0.186 µM	> 8.47 µM and 6.7 µM
NC(=O)c1sc(-n2cnc3ccccc32)cc1OCc1ccccc1Br	3.99 µM	12.7			4.75 µM	> 25 µM	1.28 µM	> 25 µM	3.9 µM	> 25 µM	4.94 µM	> 25	6.95 µM	> 25	1.26 µM	> 25	4.03 µM	> 25	17.9 µM	> 25 µM
O=C(O)c1ccccc1[Se][Se]c1ccccc1C(=O)O		> 100		> 100 µM		> 100 µM		> 100 µM		> 100 µM				> 100		89.1		> 100		
COc1cc(-c2nn(-c3ccc(NC(=O)c4ccc(Cl)c(C(F)(F)F)c4)cc3)cc2-c2ccncc2)ccc1Cl			1.46 µM	5.05 µM	1.66 µM	3.15 µM	3.62 µM	> 57.3 µM	0.255 µM	0.948 µM	4.58 µM	> 39.6	1.42 µM	4.21	1.5 µM	4.84	3.06 µM	> 100	2.18 µM	> 65.1 µM
O=C(Nc1ccccc1)NS(=O)(=O)c1ccc(-n2nc3c(c2-c2cccs2)Cc2ccccc2-3)cc1	31.5 µM	> 100			15.6 µM	31.5 µM			21.9 µM	73.5 µM	20.1 µM	89.7	16.9 µM	44.7	8.08 µM	> 100	12.2 µM	29.6	26.1 µM	87.2 µM
Cn1c2ccccc2c2c(Nc3ccccc3)c3ccccc3nc21	45.6 µM	> 100	15.4 µM	33.9 µM	13.7 µM	28.1 µM			5.62 µM	23.8 µM	> 100 µM	> 100	14.1 µM	60.5			31.4 µM	67.4	14.3 µM	51.1 µM
COc1ccc2c3c1C(=O)CCCC3CO2 (centres undefined)		> 100		> 100 µM		> 100 µM		> 100 µM		> 100 µM		> 100		> 100		> 100		> 100		
OCc1ccc(N2CCC2c2ccc(F)cc2)cc1Cl (centres undefined)	20.9 µM	55.9	29.4 µM	> 66.1 µM	8.92 µM	22.9 µM	18.5 µM	51.8 µM	0.438 µM	7.62 µM	0.256 µM	1.9	21.5 µM	> 100	24.3 µM	> 66.4	22.2 µM	> 80.1		
CC1=C(C(=O)Nc2ccc(Cl)c(Cl)c2)C(c2cccc(Oc3ccccc3)c2)NC(=S)N1 (centres undefined)	11.7 µM	21.8			7.89 µM	15 µM	15.9 µM	> 50 µM	8.15 µM	15.3 µM	9.38 µM	18.7	8.93 µM	17.4	5.71 µM	12.6			7.55 µM	15 µM
O=C1/C(=C/c2ccccc2)CN(C(=O)C(Cl)(Cl)Cl)C/C1=C\c1ccccc1		4.08		6.01 µM		2.36 µM		0.524 µM		3.24 µM		6.42		3.58		3.4		6.8		
CC1(C)CCc2c(c3c(c4c(=O)c(O)c(-c5ccc(O)cc5)oc24)OC(C)(C)CC3)O1	> 100 µM	> 100	> 100 µM	> 100 µM	> 100 µM	> 100 µM			34.3 µM	> 100 µM	> 100 µM	> 100	> 100 µM	> 100	> 100 µM	> 100	75.7 µM	> 100	34.5 µM	> 100 µM
O=S(=O)(NC1=NCCN1C(=S)SN1CCn2c1nsc2=S)c1ccc(OC(F)(F)F)cc1	2.92 µM	9.8	5.25 µM	32.7 µM	8.49 µM	21.8 µM	2.88 µM	7.35 µM			21.8 µM	36.7	8.64 µM	26.2	8.11 µM	22.8	12.7 µM	39	5.11 µM	19.6 µM
